Test results as given in patent US20240059691A1 (KALVISTA PHARMACEUTICALS LIMITED, priority 2020, published 2024).

Tests used:
Assay type in all cases: biochemical
Human Factor XIIa = Human Factor XIIa (Homo sapiens (Human), UniProt P00748); assay: Determination of FXIIa inhibition (fluorogenic substrate H-DPro-Phe-Arg-AFC, IC50 assay); conditions: substrate H-DPro-Phe-Arg-AFC at Km, 25° C.; class scale A-G
Procedure, shortened: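 Human FXIIa incubated at 25° C with fluorogenic substrate H-DPro-Phe-Arg-AFC at its Km concentration and varying compound concentrations. Fluorescence release monitored over 5 min at 25° C; linear rate expressed as % of uninhibited activity to derive IC50.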

KLK1 = KLK1 (Homo sapiens (Human), UniProt P06870); assay: Determination of related protease inhibition: KLK1 (fluorogenic substrate at Km); conditions: 25° C.
Chain of KLK1 (P06870 25-262): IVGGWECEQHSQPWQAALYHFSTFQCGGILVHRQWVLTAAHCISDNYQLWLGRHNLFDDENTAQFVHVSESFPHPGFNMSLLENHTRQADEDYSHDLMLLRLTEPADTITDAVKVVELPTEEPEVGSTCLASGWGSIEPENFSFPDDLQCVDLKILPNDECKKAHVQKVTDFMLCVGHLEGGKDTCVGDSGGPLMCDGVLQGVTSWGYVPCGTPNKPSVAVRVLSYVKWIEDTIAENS
Protocol: Determination of Related Protease Inhibition
In vitro inhibition of related proteases was determined using an ([…] assay based on standard literature methods (see e.g. Shori et al., Biochem. Pharmacol., 1992, 43, 1209; Bouckaert et al., European Journal of Medicinal Chemistry 110 (2016) 181). Human serine protease enzymes Plasma Kallikrein, KLK1, FXa, Plasmin, Thrombin and Trypsin were assayed for enzymatic activity using an appropriate fluorogenic substrate at Km concentration, FXIa at fixed substrate concentration of 100 μM, and various concentrations of the test compound. Protease activity was measured by monitoring the accumulation of liberated fluorescence from the substrate over […]. The linear rate of fluorescence increase per minute was expressed as percentage (%) activity. IC50 values were calculated as the concentration of inhibitor giving 50% inhibition of the uninhibited enzyme activity (100%).

Plasma Kallikrein = Plasma Kallikrein (Homo sapiens (Human), UniProt P03952); assay: Determination of related protease inhibition: Plasma Kallikrein (fluorogenic substrate at Km); conditions: 25° C., read-out: IC50 (human PKal)
Chain of Plasma Kallikrein (P03952 391-638): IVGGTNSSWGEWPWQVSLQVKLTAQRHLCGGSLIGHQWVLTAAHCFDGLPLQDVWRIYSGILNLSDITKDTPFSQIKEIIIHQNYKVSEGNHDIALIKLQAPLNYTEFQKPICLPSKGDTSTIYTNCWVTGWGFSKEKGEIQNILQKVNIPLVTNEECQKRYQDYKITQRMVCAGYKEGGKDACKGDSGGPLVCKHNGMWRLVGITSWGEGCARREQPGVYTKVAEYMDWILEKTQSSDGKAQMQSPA
Chain of Plasma Kallikrein (P03952 20-390 partner): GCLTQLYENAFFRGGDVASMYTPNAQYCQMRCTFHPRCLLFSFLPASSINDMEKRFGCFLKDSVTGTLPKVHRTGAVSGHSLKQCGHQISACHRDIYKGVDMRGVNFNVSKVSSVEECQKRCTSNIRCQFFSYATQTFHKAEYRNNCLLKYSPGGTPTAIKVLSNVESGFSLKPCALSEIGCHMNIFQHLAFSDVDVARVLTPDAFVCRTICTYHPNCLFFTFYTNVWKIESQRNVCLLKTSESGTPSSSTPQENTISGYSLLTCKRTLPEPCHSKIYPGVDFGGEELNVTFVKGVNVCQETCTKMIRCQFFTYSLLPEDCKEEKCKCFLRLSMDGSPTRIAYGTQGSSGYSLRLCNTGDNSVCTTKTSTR
Procedure, shortened: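 Human enzyme incubated with test compound over a concentration range and a fluorogenic substrate at its Km concentration. Liberated fluorescence monitored over 5 min at 25 °C; linear rate per minute expressed as % of uninhibited activity, and IC50 taken as the concentration giving 50% inhibition.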

Chain of Human Factor XIIa (P00748 373-615): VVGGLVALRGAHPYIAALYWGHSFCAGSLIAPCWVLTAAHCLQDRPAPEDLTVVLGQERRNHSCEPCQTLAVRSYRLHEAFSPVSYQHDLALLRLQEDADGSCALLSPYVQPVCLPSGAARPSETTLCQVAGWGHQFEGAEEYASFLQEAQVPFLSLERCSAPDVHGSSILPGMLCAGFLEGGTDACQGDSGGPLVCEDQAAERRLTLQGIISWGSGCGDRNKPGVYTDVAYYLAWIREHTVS

Row | IC50 (Human Factor XIIa) [µM] | IC50 (KLK1) [µM] | IC50 (Plasma Kallikrein) [µM] | Structure (SMILES)
1 | 0.01 to 0.1 | > 4 |  | Cc1cc(N2CCn3c(nnc3C(F)(F)F)C2C)ncc1CNc1cccc2c(N)nccc12 (racemic) [Example 1303, N5-((4-Methyl-6-(8-methyl-3-(trifluoromethyl)-5,6-dihydro-[1,2,4]triazolo[4,3-a]pyrazin-7(8H)-yl)pyridin-3-yl)methyl)isoquinoline-1,5-diamine]
2 | 1 to 3 | 1 to 3 |  | Cc1nnc2n1CCN(c1ccc(CNc3cccc4c(N)nccc34)cn1)CC2 [Example 1310, N5-((6-(3-methyl-5,6,8,9-tetrahydro-7H-[1,2,4]triazolo[4,3-d][1,4]diazepin-7-yl)pyridin-3-yl)methyl)isoquinoline-1,5-diamine]
3 | 0.3 to 1 | 3 to 10 |  | Nc1nccc2c(NCc3ccc(N4CCn5c(nnc5C(F)(F)F)C4)nn3)cccc12 [Example 9004, N5-((6-(3-(Trifluoromethyl)-5,6-dihydro-[1,2,4]triazolo[4,3-a]pyrazin-7(8H)-yl)pyridazin-3-yl)methyl)isoquinoline-1,5-diamine]
4 | 0.1 to 0.3 | > 4 |  | Cc1cc(N2CCn3c(nnc3C(F)(F)F)C2)ncc1CNc1ccnc2[nH]c(Cl)cc12 [Example 1313, 2-Chloro-N-((4-methyl-6-(3-(trifluoromethyl)-5,6-dihydro-[1,2,4]triazolo[4,3-a]pyrazin-7(8H)-yl)pyridin-3-yl)methyl)-1H-pyrrolo[2,3-b]pyridin-4-amine]
5 | 10 to 40 | 10 to 40 |  | CC(C)N1C[C@H]2C[C@@H]1CN2Cc1cc(CNc2cccc3c(N)nccc23)ccn1 [Example 4295, 5-N-[(2-{[(1R,4R)-5-isopropyl-2,5-diazabicyclo[2.2.1]heptan-2-yl]methyl}pyridin-4-yl)methyl]isoquinoline-1,5-diamine]
6 | 0.01 to 0.1 | > 4 |  | Cc1cc(N2CCn3c(nnc3C(F)(F)F)C2)cnc1CNc1cccc2c(N)nccc12 [Example 9005, N5-((3-Methyl-5-(3-(trifluoromethyl)-5,6-dihydro-[1,2,4]triazolo[4,3-a]pyrazin-7(8H)-yl)pyridin-2-yl)methyl)isoquinoline-1,5-diamine]
7 | 0.01 to 0.1 | 3 to 10 |  | CC1Cn2c(nnc2C(F)(F)F)CN1c1ccc(CNc2cccc3c(N)nccc23)cn1 (stereo not shown) [Example 1311, N5-((6-(6-Methyl-3-(trifluoromethyl)-5,6-dihydro-[1,2,4]triazolo[4,3-a]pyrazin-7(8H)-yl)pyridin-3-yl)methyl)isoquinoline-1,5-diamine]
8 | 0.3 to 1 | 3 to 10 |  | Nc1nccc2c(NCc3cnc(N4CCn5c(nnc5C(F)(F)F)C4)cc3C3CC3)cccc12 [Example 1307, N5-((4-cyclopropyl-6-(3-(trifluoromethyl)-5,6-dihydro-[1,2,4]triazolo[4,3-a]pyrazin-7(8H)-yl)pyridin-3-yl)methyl)isoquinoline-1,5-diamine]
9 |  | 1 to 3 |  | Nc1nccc2c(NCc3cnc(N4CCn5c(nnc5C(F)(F)F)C4)c(C(F)(F)F)c3)cccc12 [Example 1306, N5-((5-(trifluoromethyl)-6-(3-(trifluoromethyl)-5,6-dihydro-[1,2,4]triazolo[4,3-a]pyrazin-7(8H)-yl)pyridin-3-yl)methyl)isoquinoline-1,5-diamine]
10 | 0.3 to 1 |  | > 4 | Nc1ncc(F)c2cc(NCc3ccnc(OCC4CCn5ccnc5C4)c3)ccc12 (stereo not shown) [Example 4307, 4-fluoro-6-N-[(2-{5H,6H,7H,8H-imidazo[1,2-a]pyridin-7-ylmethoxy}pyridin-4-yl)methyl]isoquinoline-1,6-diamine]
11 | 10 to 40 |  | > 40 | Nc1nccc2c(NCc3ccc(N4CCn5nccc5C4)nc3)cccc12 [Example 1156, N5-((6-(6,7-dihydropyrazolo[1,5-a]pyrazin-5(4H)-yl)pyridin-3-yl)methyl)isoquinoline-1,5-diamine]
12 | 40 to 100 |  | > 40 | CN1CCC(CNc2ccc(CNc3ccc4c[nH]c(=O)cc4c3)cn2)CC1 [Example 1201, 6-(((6-(((1-methylpiperidin-4-yl)methyl)amino)pyridin-3-yl)methyl)amino)isoquinolin-3(2H)-one]
13 | 10 to 40 |  | > 100 | CN1CCC(CNc2ccc(CNc3ccc4cccnc4c3)cn2)CC1 [Example 1184, N-((6-(((1-methylpiperidin-4-yl)methyl)amino)pyridin-3-yl)methyl)quinolin-7-amine]
14 | 1 to 3 |  | > 100 | Cc1cc2c(NCc3ccnc(OCC4CCN(C)CC4)c3)ccnc2[nH]1 [Example 4465, 2-methyl-N-((2-((1-methylpiperidin-4-yl)methoxy)pyridin-4-yl)methyl)-1H-pyrrolo[2,3-b]pyridin-4-amine]
15 | 0.1 to 0.3 |  | 10 to 40 | Nc1ncc(Cl)c2cc(NCc3ccnc(OCC4CCCn5ccnc54)c3)ccc12 (single isomer, unassigned) [Example 4450, (S*)-4-chloro-N6-((2-((5,6,7,8-tetrahydroimidazo[1,2-a]pyridin-8-yl)methoxy)pyridin-4-yl)methyl)isoquinoline-1,6-diamine]
16 | 1 to 3 |  | > 40 | Nc1nccc2c(NCc3ccc(N4CCn5cnnc5C4)nc3)cccc12 [Example 1276, N5-((6-(5,6-dihydro-[1,2,4]triazolo[4,3-a]pyrazin-7(8H)-yl)pyridin-3-yl)methyl)isoquinoline-1,5-diamine]
17 | 3 to 10 |  | 10 to 40 | CN1CCC(OCc2ccc(CNc3ccc4nc(N)ccc4c3)cc2)CC1 [Example 2187, N6-(4-(((1-methylpiperidin-4-yl)oxy)methyl)benzyl)quinoline-2,6-diamine]
18 | 1 to 3 |  | 10 to 40 | Nc1nccc2c(NCc3ccnc(NCCC(=O)N4CCCC4)c3)cccc12 [Example 4302, 3-[(4-{[(1-aminoisoquinolin-5-yl)amino]methyl}pyridin-2-yl)amino]-1-(pyrrolidin-1-yl)propan-1-one]
19 | 1 to 3 |  | 3 to 10 | CN1CCC(CNc2ccc(CNc3cc4ccnc(N)c4cn3)cn2)CC1 [Example 1196, N6-((6-(((1-methylpiperidin-4-yl)methyl)amino)pyridin-3-yl)methyl)-2,7-naphthyridine-1,6-diamine]
20 | 3 to 10 |  | > 100 | COc1cc(NCc2ccnc(OCC3CCN(C)CC3)c2)cc2ccncc12 [Example 4462, 8-methoxy-N-((2-((1-methylpiperidin-4-yl)methoxy)pyridin-4-yl)methyl)isoquinolin-6-amine]
21 | 3 to 10 |  | > 40 | CC(C)(O)c1cnc2n1CCN(c1ccc(CNc3cccc4c(N)nccc34)cn1)C2 [Example 1167, 2-(7-(5-(((1-aminoisoquinolin-5-yl)amino)methyl)pyridin-2-yl)-5,6,7,8-tetrahydroimidazo[1,2-a]pyrazin-3-yl)propan-2-ol]
22 | 10 to 40 |  | > 40 | CN1CCC(CNc2ccc(CNc3ccnc4[nH]c(C(N)=O)cc34)cn2)CC1 [Example 1252, 4-(((6-(((1-methylpiperidin-4-yl)methyl)amino)pyridin-3-yl)methyl)amino)-1H-pyrrolo[2,3-b]pyridine-2-carboxamide]
23 | 3 to 10 |  | > 40 | CN1CCC(CNc2ccc(CNc3cccc4c(N)ncc(F)c34)cn2)CC1 [Example 1194, 4-fluoro-N5-((6-(((1-methylpiperidin-4-yl)methyl)amino)pyridin-3-yl)methyl)isoquinoline-1,5-diamine]
24 | 0.1 to 0.3 |  | 3 to 10 | Cc1cnc2n1CCC(COc1cc(CNc3cccc4c(N)nccc34)ccn1)C2 (single isomer, unassigned) [Example 4445, (R*)-N5-((2-((3-methyl-5,6,7,8-tetrahydroimidazo[1,2-a]pyridin-7-yl)methoxy)pyridin-4-yl)methyl)isoquinoline-1,5-diamine]
25 | 1 to 3 |  | > 40 | Cc1cc2c(NCc3ccc(N4CCn5c(nnc5C(F)F)C4)nc3)ccnc2[nH]1 [Example 1278, N-((6-(3-(Difluoromethyl)-5,6-dihydro-[1,2,4]triazolo[4,3-a]pyrazin-7(8H)-yl)pyridin-3-yl)methyl)-2-methyl-1H-pyrrolo[2,3-b]pyridin-4-amine]
26 | 0.1 to 0.3 |  | 1 to 3 | CC(C)N1CCC(OCc2ccc(CNc3ccc4c(N)nccc4c3)c(F)c2)CC1 [Example 2216, 6-N-[(2-fluoro-4-{[(1-isopropylpiperidin-4-yl)oxy]methyl}phenyl)methyl]isoquinoline-1,6-diamine]
27 | 0.3 to 1 |  | > 40 | Nc1ncc(Cl)c2cc(NCc3ccnc(OCC4CCCn5ccnc54)c3)ccc12 (single isomer, unassigned) [Example 4451, (R*)-4-chloro-N6-((2-((5,6,7,8-tetrahydroimidazo[1,2-a]pyridin-8-yl)methoxy)pyridin-4-yl)methyl)isoquinoline-1,6-diamine]
28 | 10 to 40 |  | > 40 | Nc1nccc2c(NCc3cnc(NCCC(=O)N4CCCC4)nc3)cccc12 [Example 1039, 3-[(5-{[(1-aminoisoquinolin-5-yl)amino]methyl}pyrimidin-2-yl)amino]-1-(pyrrolidin-1-yl)propan-1-one]
